Assay results from patent US11807644B2 (PMV Pharmaceuticals, Inc., priority 2020, dated 2023).

Each compound was assayed against T1, recombinant His-tag Y220C p53 DBD protein (Homo sapiens, UniProt P04637, Y220C) (assay: In vitro DNA binding activity assay (TR-FRET): binding of His-tag Y220C p53 DBD to biotin-labeled consensus DNA). Conditions: SC150 = concentration to increase DNA binding by […], His-tag Y220C p53 DBD, biotin-labeled consensus DNA.
T1 construct: recombinant His-tag Y220C p53 DBD protein (amino acids #˜94-312)
Type: biochemical

C[C@@H]1CN(C)CC[C@@H]1Nc1cccc2c1cc(-c1noc(CNC(=O)c3ccc(C(C)(C)O)s3)n1)n2CC(F)(F)F (stereo in doubt) [Compound 515B, N-{[3-(4-{[(3R,4S)-1,3-dimethylpiperidin-4-yl]amino}-1-(2,2,2-trifluoroethyl)-1H-indol-2-yl)-1,2,4-oxadiazol-5-yl]methyl)-5-(2-hydroxypropan-2-yl)thiophene-2-carboxamide] was tested. Which “Y220C SC150 (μM)” value did it give?
Its value is “* (* = 0 μM ≤ SC150 < 0.1 μM)”.

How did the “Y220C SC150 (μM)” value turn out when CC1CN(c2nc(C(=O)NCc3nc(-c4cc5c(N[C@@H]6CCN(C)C[C@@H]6F)cccc5n4CC(F)(F)F)no3)cs2)C[C@H](C)O1 (stereo in doubt) [Compound 517B, 2-[(2S,6S)-2,6-dimethylmorpholin-4-yl]-N-{[3-(4-{[(3S,4R)-3-fluoro-1-methylpiperidin-4-yl]amino}-1-(2,2,2-trifluoroethyl)-1H-indol-2-yl)-1,2,4-oxadiazol-5-yl]methyl}-1,3-thiazole-4-carboxamide] was run?
Its value is “* (* = 0 μM ≤ SC150 < 0.1 μM)”.

For Cn1ccc(-c2cc3c(NC4CCS(=O)(=O)CC4)cccc3n2CC(F)(F)F)n1 [Compound 14B, 4-{[2-(1-methyl-1H-pyrazol-3-yl)-1-(2,2,2-trifluoroethyl)-1H-indol-4-yl]amino}-1λ^6-thiane-1,1-dione], which “Y220C SC150 (μM)” value is on record?
The value was “**** (**** = 1 μM ≤ SC150 < 10 μM)”.

Which “Y220C SC150 (μM)” value does the source give for O=S1(=O)CCC(Nc2cccc3c2cc(-c2cnn(CCO)c2)n3CC(F)(F)F)CC1 [Compound 15B, 4-({2-[1-(2-hydroxyethyl)-1H-pyrazol-4-yl]-1-(2,2,2-trifluoroethyl)-1H-indol-4-yl}amino)-1λ^6-thiane-1,1-dione] here?
The value was “**** (**** = 1 μM ≤ SC150 < 10 μM)”.

For O=S1(=O)CCC(Nc2cccc3c2cc(-c2cnn(Cc4cccnc4)c2)n3CC(F)(F)F)CC1 [Compound 16B, 4-[(2-{1-[(pyridin-3-yl)methyl]-1H-pyrazol-4-yl}-1-(2,2,2-trifluoroethyl)-1H-indol-4-yl)amino]-1λ^6-thiane-1,1-dione], which “Y220C SC150 (μM)” value is on record?
Its value is “**** (**** = 1 μM ≤ SC150 < 10 μM)”.

Which “Y220C SC150 (μM)” value does the source give for CN1CCC(Nc2cccc3c2cc(-c2cc(C(N)c4ccccc4)[nH]n2)n3CC(F)(F)F)CC1 (centres unmarked) [Compound 20B, 2-{5-[amino(phenyl)methyl]-1H-pyrazol-3-yl}-N-(1-methylpiperidin-4-yl)-1-(2,2,2-trifluoroethyl)-1H-indol-4-amine] here?
Its value is “**** (**** = 1 μM ≤ SC150 < 10 μM)”.

For CN1CCC(Nc2cccc3c2cc(-c2cc(N)[nH]n2)n3CC(F)(F)F)CC1 [Compound 21B, 2-(5-amino-1H-pyrazol-3-yl)-N-(1-methylpiperidin-4-yl)-1-(2,2,2-trifluoroethyl)-1H-indol-4-amine], which “Y220C SC150 (μM)” value is on record?
The value was “**** (**** = 1 μM ≤ SC150 < 10 μM)”.

Same assay, conditions: concentration to increase DNA binding by […], incubated at either 27° C. or 29° C. for 60 min

With NC(=O)c1ccc(-c2cc3c(NC4CCS(=O)(=O)CC4)cccc3n2CC(F)(F)F)cc1 [Compound 1A, 4-{4-[(1,1-dioxo-1λ^6-thian-4-yl)amino]-1-(2,2,2-trifluoroethyl)-1H-indol-2-yl}benzamide] as the compound, how does the “SC150 (μM)” value read?
The value was “++++ (++++ = 10 μM ≤ SC150 < 35 μM)”.

How did the “SC150 (μM)” value turn out when NCc1ccc(-c2cc3c(NC4CCS(=O)(=O)CC4)cccc3n2CC(F)(F)F)cc1 [Compound 2A, 4-({2-[4-(aminomethyl)phenyl]-1-(2,2,2-trifluoroethyl)-1H-indol-4-yl}amino)-1λ^6-thiane-1,1-dione] was run?
Its value is “+++ (+++ = 5 μM ≤ SC150 < 10 μM)”.

CNCc1ccc(-c2cc3c(NC4CCS(=O)(=O)CC4)cccc3n2CC(F)(F)F)cc1 [Compound 3A, 4-[(2-{4-[(methylamino)methyl]phenyl}-1-(2,2,2-trifluoroethyl)-1H-indol-4-yl)amino]-1λ^6-thiane-1,1-dione] was tested. Which “SC150 (μM)” value did it give?
Its value is “+++ (+++ = 5 μM ≤ SC150 < 10 μM)”.

How did the “SC150 (μM)” value turn out when CN(Cc1ccc(-c2cc3c(NC4CCS(=O)(=O)CC4)cccc3n2CC(F)(F)F)cc1)C(=O)OC(C)(C)C [Compound 4A, tert-butyl N-[(4-{4-[(1,1-dioxo-1λ^6-thian-4-yl)amino]-1-(2,2,2-trifluoroethyl)-1H-indol-2-yl}phenyl)methyl]-N-methylcarbamate] was run?
Its value is “+++ (+++ = 5 μM ≤ SC150 < 10 μM)”.

For CNC(=O)c1ccc(-c2cc3c(NC4CCS(=O)(=O)CC4)cccc3n2CC(F)(F)F)cc1 [Compound 5A, 4-{4-[(1,1-dioxo-1λ^6-thian-4-yl)amino]-1-(2,2,2-trifluoroethyl)-1H-indol-2-yl}-N-methylbenzamide], which “SC150 (μM)” value is on record?
The value was “++++ (++++ = 10 μM ≤ SC150 < 35 μM)”.

For CC(C)(C)OC(=O)NCc1ccc(-c2cc3c(NC4CCS(=O)(=O)CC4)cccc3n2CC(F)(F)F)cc1 [Compound 6A, tert-butyl N-[(4-{4-[(1,1-dioxo-1λ^6-thian-4-yl)amino]-1-(2,2,2-trifluoroethyl)-1H-indol-2-yl}phenyl)methyl]carbamate], which “SC150 (μM)” value is on record?
The value was “++ (++ = 2 μM ≤ SC150 < 5 μM)”.

For CC(C)(C#N)c1ccc(NCc2ccc(-c3cc4c(NC5CCS(=O)(=O)CC5)cccc4n3CC(F)(F)F)cc2)cn1 [Compound 7A, 2-(5-{[(4-{4-[(1,1-dioxo-1λ^6-thian-4-yl)amino]-1-(2,2,2-trifluoroethyl)-1H-indol-2-yl}phenyl)methyl]amino}pyridine-2-yl)-2-methylpropanenitrile], which “SC150 (μM)” value is on record?
The value was “++ (++ = 2 μM ≤ SC150 < 5 μM)”.

Which “SC150 (μM)” value does the source give for CS(=O)(=O)c1ccc(NCc2ccc(-c3cc4c(NC5CCS(=O)(=O)CC5)cccc4n3CC(F)(F)F)cc2)cc1 [Compound 8A, 4-{[2-(4-{[(4-methanesulfonylphenyl)amino]methyl}phenyl)-1-(2,2,2-trifluoroethyl)-1H-indol-4-yl]amino}-1λ^6-thiane-, 1-dione] here?
The value was “+ (+ = 0 μM ≤ SC150 < 2 μM)”.

For O=S1(=O)CCC(Nc2cccc3c2cc(-c2ccc(CNc4ccccc4)cc2)n3CC(F)(F)F)CC1 [Compound 9A, 4-[(2-{4-[(phenylamino)methyl]phenyl}-1-(2,2,2-trifluoroethyl)-1H-indol-4-yl)amino]-1λ^6-thiane-1,1-dione], which “SC150 (μM)” value is on record?
The value was “+++ (+++ = 5 μM ≤ SC150 < 10 μM)”.

How did the “SC150 (μM)” value turn out when N#Cc1cccc(-c2cc3c(NC4CCS(=O)(=O)CC4)cccc3n2CC(F)(F)F)c1 [Compound 10A, 3-{4-[(1,1-dioxo-1λ^6-thian-4-yl)amino]-1-(2,2,2-trifluoroethyl)-1H-indol-2-yl}benzonitrile] was run?
Its value is “++++ (++++ = 10 μM ≤ SC150 < 35 μM)”.

Cc1ccc(-c2cc3c(NC4CCS(=O)(=O)CC4)cccc3n2CC(F)(F)F)c(F)c1 [Compound 11A, 4-{[2-(2-fluoro-4-methylphenyl)-1-(2,2,2-trifluoroethyl)-1H-indol-4-yl]amino}-1λ^6-thiane-1,1-dione] was tested. Which “SC150 (μM)” value did it give?
Its value is “++++ (++++ = 10 μM ≤ SC150 < 35 μM)”.

With O=S1(=O)CCC(Nc2cccc3c2cc(-c2cccc(Cl)c2)n3CC(F)(F)F)CC1 [Compound 12A, 4-{[2-(3-chlorophenyl)-1-(2,2,2-trifluoroethyl)-1H-indol-4-yl]amino}-1λ^6-thiane-1,1-dione] as the compound, how does the “SC150 (μM)” value read?
The value was “++++ (++++ = 10 μM ≤ SC150 < 35 μM)”.

How did the “SC150 (μM)” value turn out when COc1cccc(-c2cc3c(NC4CCS(=O)(=O)CC4)cccc3n2CC(F)(F)F)c1 [Compound 13A, 4-{[2-(3-methoxyphenyl)-1-(2,2,2-trifluoroethyl)-1H-indol-4-yl]amino}-1λ^6-thiane-1,1-dione] was run?
Its value is “+++ (+++ = 5 μM ≤ SC150 < 10 μM)”.

Which “SC150 (μM)” value does the source give for O=S1(=O)CCC(Nc2cccc3c2cc(-c2ccc(Cl)cc2)n3CC(F)(F)F)CC1 [Compound 14A, 4-{[2-(4-chlorophenyl)-1-(2,2,2-trifluoroethyl)-1H-indol-4-yl]amino}-1λ^6-thiane-1,1-dione] here?
The value was “++++ (++++ = 10 μM ≤ SC150 < 35 μM)”.

How did the “SC150 (μM)” value turn out when CC(C)(C)c1ccc(C(=O)NCc2ccc(-c3cc4c(NC5CCS(=O)(=O)CC5)cccc4n3CC(F)(F)F)cc2)cc1 [Compound 15A, 4-tert-butyl-N-[(4-{4-[(1,1-dioxo-1λ^6-thian-4-yl)amino]-1-(2,2,2-trifluoroethyl)-1H-indol-2-yl}phenyl)methyl]benzamide] was run?
Its value is “+++ (+++ = 5 μM ≤ SC150 < 10 μM)”.

For N#Cc1ccc(C(=O)NCc2ccc(-c3cc4c(NC5CCS(=O)(=O)CC5)cccc4n3CC(F)(F)F)cc2)cc1 [Compound 16A, 4-cyano-N-[(4-{4-[(1,1-dioxo-1λ^6-thian-4-yl)amino]-1-(2,2,2-trifluoroethyl)-1H-indol-2-yl}phenyl)methyl]benzamide], which “SC150 (μM)” value is on record?
The value was “++ (++ = 2 μM ≤ SC150 < 5 μM)”.

Which “SC150 (μM)” value does the source give for O=C(NCc1ccc(-c2cc3c(NC4CCS(=O)(=O)CC4)cccc3n2CC(F)(F)F)cc1)c1ccc(Cl)cc1 [Compound 17A, 4-chloro-N-[(4-{4-[(1,1-dioxo-1λ^6-thian-4-yl)amino]-1-(2,2,2-trifluoroethyl)-1H-indol-2-yl}phenyl)methyl]benzamide] here?
The value was “++ (++ = 2 μM ≤ SC150 < 5 μM)”.

How did the “SC150 (μM)” value turn out when CC(C)(C#N)c1ccc(NC(=O)NCc2ccc(-c3cc4c(NC5CCS(=O)(=O)CC5)cccc4n3CC(F)(F)F)cc2)cn1 [Compound 18A, 3-[6-(1-cyano-1-methylethyl)pyridin-3-yl]-1-[(4-{4-[(1,1-dioxo-1λ^6-thian-4-yl)amino]-1-(2,2,2-trifluoroethyl)-1H-indol-2-yl}phenyl)methyl]urea] was run?
The value was “+ (+ = 0 μM ≤ SC150 < 2 μM)”.

How did the “SC150 (μM)” value turn out when O=C(NCc1ccc(-c2cc3c(NC4CCS(=O)(=O)CC4)cccc3n2CC(F)(F)F)cc1)Nc1ccccc1 [Compound 19A, 3-[(4-{4-[(1,1-dioxo-1λ^6-thian-4-yl)amino]-1-(2,2,2-trifluoroethyl)-1H-indol-2-yl}phenyl)methyl]-1-phenylurea] was run?
Its value is “+ (+ = 0 μM ≤ SC150 < 2 μM)”.

Which “SC150 (μM)” value does the source give for O=C(O)c1cccc(-c2cc3c(NC4CCS(=O)(=O)CC4)cccc3n2CC(F)(F)F)c1 [Compound 20A, 3-{4-[(1,1-dioxo-1λ^6-thian-4-yl)amino]-1-(2,2,2-trifluoroethyl)-1H-indol-2-yl}benzoic acid] here?
Its value is “++++ (++++ = 10 μM ≤ SC150 < 35 μM)”.

For CN(C)c1cccc(-c2cc3c(NC4CCS(=O)(=O)CC4)cccc3n2CC(F)(F)F)c1 [Compound 21A, 4-({2-[3-(dimethylamino)phenyl]-1-(2,2,2-trifluoroethyl)-1H-indol-4-yl}amino)-1λ^6-thiane-1,1-dione], which “SC150 (μM)” value is on record?
The value was “++ (++ = 2 μM ≤ SC150 < 5 μM)”.

Which “SC150 (μM)” value does the source give for CNC(=O)c1cccc(-c2cc3c(NC4CCS(=O)(=O)CC4)cccc3n2CC(F)(F)F)c1 [Compound 22A, 3-{4-[(1,1-dioxo-1λ^6-thian-4-yl)amino]-1-(2,2,2-trifluoroethyl)-1H-indol-2-yl}-N-methylbenzamide] here?
The value was “++ (++ = 2 μM ≤ SC150 < 5 μM)”.
